Source: US10421749B2, “Pyrone derivatives for use as antiviral agents” (priority 2015, dated 2019)
“Also recorded” adds a separate entry of the source.

Key:
HIV-1 [1] = conditions: LC5-RIC cells; for inhibition of HIV-1 replication: 48 h, steps 1 and 2, FIG. 5; for inhibition of the late phase of HIV-1 replication: step 2 (supernatant transfer, 72 h), FIG. 6, FIG. 7
Description: (§2) LC5-RIC cells were seeded into 96-well plates (μCLEAR-Plate Black; Greiner Bio-One, Kremsmuenster, Germany), using only the 60 inner wells to avoid adverse effects caused by variations in the culture conditions in the outer wells. Cells were seeded at a density of 10^4 per well at 24 h prior to infection. Compounds were tested either at single concentrations or in serial dilutions, with each concentration assayed in triplicate. Compound solution (100 μl) followed by 20 μl of HIV inoculum (10^8 RNA copies/ml inoculum for KE37.1-derived HIV-1IIIB or 28.8 ng of p24 for HIV-1LAI derived from HEK 293T cells) was added to each well. To assay maximum infection (i.e., 100%), HIV inoculum was added to LC5-RIC cells incubated with compound-free medium. Controls for background expression consisted of LC5-RIC cells cultured in conditioned medium from KE37.1 (i.e., uninfected) cells. Plates were incubated for 48 h after virus addition, after which cultures were assayed for cellular reporter expression and for titers of infectious virus in supernatant fluids. Reporter expression was determined by measuring the total fluorescent signal intensity of each culture with a fluorescence microplate reader (Fluoroskan Ascent; ThermoFisher, Schwerte, Germany) at an excitation filter wavelength of 544 nm and an emission filter wavelength of 590 nm or with a Tecan infinite M200 (Tecan, Crailsheim, Germany) at the monochromator wavelengths 552 nm for excitation and 596 for emission. To quantify infectious virus titers, supernatant fluids (30 μl of HIV-1IIIB or 20 μl for HIV-1LAI) from cultures in the first plate were transferred to a second plate with uninfected LC5-RIC cells in exact replicate, and total fluorescent signal intensities of cultures in the second plate were measured 72 h after transfer.
(§3) Curve fits and EC50 calculations were done with Prism, version 4 (GraphPad Software, La Jolla, Calif.), using the equation for sigmoidal dose response with variable slope with the following set constraint parameters: fixed top of 100 and fixed bottom of 0. As internal acceptance criteria, R^2 values had to be ≥0.9.
(§4) To evaluate the inhibitory effects of the pyrone derivatives described herein, the EASY-HIT assay was used as disclosed in Kremp et al., supra. Briefly, a pyrone compound (or another test compound) was added to LC5-RIC cultures (or other uninfected cells, such as PBMCs) in microtiter plates, HIV preparations were added within 30 min of beginning treatment, and test cultures were incubated for 48 h after virus addition. Reference cultures were either exposed to the virus without test compound (maximum signal) or not exposed to the virus (minimum signal). Effects of test compounds on HIV infection of LC5-RIC cultures were determined in two steps. The first step quantified reporter expression by assaying fluorescent signal intensities of cells in test cultures. The second step quantified the infectious virus produced in test cultures by transferring aliquots of supernatants of test cultures to uninfected LC5-RIC cells (or other uninfected cells, such as PBMCs), followed by measurement of fluorescent signal intensities at 72 h after transfer. Cells evaluated for reporter expression were subjected to an MTT assay to detect deleterious effects of test compounds on cell viability under test conditions.
(§5) Briefly, the test compound) was added to LC5-RIC cultures in microtiter plates. HIV-1 virus preparations were added within 30 min of beginning treatment with the text compound and test cultures were incubated for 48 h after virus addition. Reference cultures were either exposed to the virus without test compound (maximum signal) or not exposed to the virus (minimum signal).

HepG2.2.15 cells = test: Cell viability of HepG2.2.15 cells by cell titer blue assay; format: cell-based, human; conditions: three days treatment, 1 μM to 1 nM, compared to untreated control cells; FIG. 4A
Description: (§1) The human hepatoma cell line HepG2.2.15, stably expressing HBV particles, was seeded in a 48 well format at a density of 5×10^4 the day before starting the treatment. Next day the cells were treated with 1 μM, 100 nM, 10 nM and 1 nM of Compound 1 with 3 independent biological replicates each. The cells were cultured in differentiation medium containing 1.8% DMSO, to slow down cell growth and enhance viral replication. Three days after treatment, cell viability (FIG. 4A) was determined by cell titer blue assay, cell supernatants were analyzed for HBeAg and newly released viral particles (FIGS. 4B and C) and finally cells were harvested to analyze for intracellular HBV DNA (FIG. 4D).

[2] = tested on: HIV-1 expression in HNSCLatGFP1.1 cells; test: Induced expression of latent HIV-1-gfp reporter virus in HNSCLatGFP1.1 cells (GFP, FACS); format: cell-based, human; conditions: induction with TNF; 0.5, 5, 50 nM compound; FIG. 3A
Description: A) Induction of expression of HIV-1 in HNSCLatGFP1.1 cells using TNF: 1: untreated (negative control); 2: TNF (positive control); 3: 0.5 nM Compound 1; 4: 5 nM Compound 1; 5: 50 nM Compound 1; 6: 0.5 nM Compound 1+TNF; 7: 5 nM Compound 1+TNF; 8: 50 nM Compound 1+TNF. B) Induction of expression of HIV-1 in HNSCLatGFP1.1 cells using TNF+SAHA: 1: mock; 2: TNF+SAHA; 3: 50 nM Compound 1; 4: TNF+SAHA+50 nM Compound 1. C) Induction of expression of HIV-1 in HNSCLatGFP1.1 cells using SAHA: 1: untreated (negative control); 2: SAHA (positive control); 3: 0.5 nM Compound 1; 4: 5 nM Compound 1; 5: 50 nM Compound 1; 6: 0.5 nM Compound 1+SAHA; 7: 5 nM Compound 1+SAHA; 8: 50 nM Compound 1+SAHA.
To further characterize the inhibitory effects of Compound 1, a further cell line (HNSCLatGFP1.1) was established into the genome of which the genome of a HIV-1-gfp reporter virus has been stably integrated.
Reference cultures were either untreated (minimum signal; lane 1 of FIG. 3A) or exposed to TNF (maximum signal; lane 2 of FIG. 3A). HNSCLatGFP1.1 cells were exposed to different concentrations of Compound 1 either alone (lanes 3 to 5 of FIG. 3A) or together with TNF (lanes 6 to 8 of FIG. 3A).

HIV-1 [3] = test: microbe, parasite or virus in culture; conditions: Human immunodeficiency virus 1, 48 h, read-out: EC50 with respect to HIV replication
Description: as §2, §3, §4, §5

HIV = test: Time-of-addition (TOA) assay in LC5-RIC cells; format: cell-based, HIV-1; conditions: FIG. 2
Description: TOA assays were performed in 96-well plates using a standard assay setup with some modifications. HIV-1IIIB virus preparations were added to LC5-RIC cultures at time point 0. Anti-HIV compounds were added to the cultures at different time points after addition of virus preparations. Inhibitor concentrations were ≥2× EC50 in each well. At least 15 different time points were evaluated for each compound in at least three wells per time point. Cultures were incubated with virus for 48 h and subsequently analyzed for cellular reporter gene expression and/or infectious virus titers in culture supernatants.
To further characterize the inhibitory effects of Compound 1, HIV preparations were added to LC5-RIC cells at the time point 0. Compound 1 was added to the cultures at different time points after virus addition (i.e., p.i.). Plates were incubated for a total period of 48 h after virus addition, and cultures were assayed for HIV reporter expression (step 1) or for amounts of infectious virus in culture supernatants (step 2). Fluorescent signal intensities of treated cultures were related to those of cultures infected without inhibitors (set at 100% infection).

HBV = HBV replication in HepG2.2.15 cells (HBeAg, released viral particles, intracellular HBV DNA); format: cell-based; conditions: three days treatment, 1 μM to 1 nM
Description: Antiviral effect of Compound 1 on HBV replication. A) After a three days treatment of HepG2.2.15 cells with Compound 1 in a concentration range from 1 μM to 1 nM, the cell viability was unchanged compared to untreated control cells.
as §1

LC5-RIC cells = test: MTT cell viability assay of LC5-RIC test cultures; format: cell-based; conditions: concentration range tested 0 to 120 μM; FIG. 1C
From the text: Effects of compounds on cell viability wasy measured by MTT assay, Cell Titre Blue Assay and Cell Tox Green Assay. The MTT assay and the Cell Titre Blue Assay evaluate metabolic activity of cells, The Cell Tox Green assay measures cell death (i.e. loss of cell membrane integrity). The MTT assay measures the reduction of the yellow MTT to purple formazan by mitochondrial enzymes (Mosmann, T., J. Immunol. Methods 65 (1983), 55-63) Immediately following measurement of reporter expression, cultures were incubated with 100 μl of MTT solution (0.5 mg of MTT; Sigma, Taufkirchen, Germany) in 100 μl of culture medium for 2 h under standard culture conditions. MTT solution was carefully removed, and cells were lysed by addition of 100 μl of lysis solution (10% [wt/vol] SDS and 0.6% [vol/vol] acetic acid in dimethyl sulfoxide [DMSO]). The released MTT formazan crystals were dissolved by gentle agitation, and MTT formazan concentrations were determined by an ELISA plate reader (SmartSpec Plus; Bio-Rad, Muenchen, Germany) or Tecan Infinite M200 at a test wavelength of 570 nm and a reference wavelength of 630 nm. Values for treated HIV-infected cultures were related to those of untreated, HIV-infected cultures in the same plate. […]

## COc1oc([C@H]2C/C(=C/C(C)=C/c3cccc(Cl)c3)CO2)c(C)c(=O)c1C [Compound 19]
HIV-1 [1]
  inhibition of HIV-1 replication: inhibit HIV-1 replication

## COc1oc([C@H]2C/C(=C/C(C)=C/c3ccc(C(F)(F)F)cc3)CO2)c(C)c(=O)c1C [Compound 22]
HIV-1 [1]
  inhibition of the late phase of HIV-1 replication: highest activities

## COc1oc([C@H]2C/C(=C/C(C)=C/c3ccc([N+](=O)[O-])cc3)CO2)c(C)c(=O)c1C [Compound 1]
HepG2.2.15 cells
  cell viability of HepG2.2.15 cells: unchanged; also recorded: without affecting cell viability
[2]
  inhibition of virus production in HNSCLatGFP1.1 cells: able to inhibit virus production in HNSCLatGFP1.1 cells in a dose dependent manner
HIV-1 [3]
  EC50: 0.6 nM
HIV; LC5-RIC cells, 48 h total incubation
  time between infection and addition of compound at which HIV replication was still blocked: 30 h
HIV; compound added at different time points after virus addition, 48 h total
  stage of HIV replication inhibited (time-of-addition): inhibited the HIV replication at a very early stage
HBV; Hepatitis B virus, 72 h, n=3, read-out: IC50 of viral replication markers (HBeAg, released viral particles, intracellular HBV DNA)
  IC50: 2 to 20 nM
HBV; FIG. 4B-D
  viral replication markers (HBeAg, newly released viral particles, intracellular HBV DNA): strongly reduced in a dose dependent fashion
LC5-RIC cells
  toxic effect (MTT cell viability): did not exhibit any toxic effect

## COc1oc([C@H]2C/C(=C/C(C)=C/c3ccc(F)cc3F)CO2)c(C)c(=O)c1C [Compound 21]
HIV-1 [1]
  inhibition of the late phase of HIV-1 replication: highest activities

## COc1ccc(/C=C(C)/C=C2\CO[C@@H](c3oc(OC)c(C)c(=O)c3C)C2)cc1OC [Compound 23]
HIV-1 [1]
  inhibition of the late phase of HIV-1 replication: lowest activity

## COc1oc([C@H]2C/C(=C/C(C)=C/c3ccc(Cl)cc3)CO2)c(C)c(=O)c1C [Compound 4]
HIV-1 [1]
  inhibition of HIV-1 replication: inhibit HIV-1 replication
